Reference: patent US5919803A, “3-benzylamino-2-phenylpiperidines as neurokinin antagonists” (Glaxo Group Limited, priority 1995, dated 1999)

Tested on: radiation-induced emesis in the ferret
Assay: radiation-induced emesis in the ferret
Assay type: in vivo
Details: 0.1 mg/kg s.c., compound administered 1.5 hours prior to irradiation (whole body, 2 Grey)
Procedure: In this model of emesis the onset of retching and vomiting occurs approximately 20 minutes after whole body irradiation (2 Grey=200 Rads). The test compound is administered (e.g. i.p, p.o., i.v., s.c) immediately after irradiation and its effect on emesis determined by comparison with appropriate controls. […] Alternatively, the test compounds may be administered before irradiation or before treatment with an emetogen, for example 1.5, 3 or 6 hours before irradiation.

SMILES: CCOc1ccc(-n2nnnc2C(F)(F)F)cc1CN[C@H]1CCCN[C@H]1c1ccccc1.Cl.Cl [Example 1, [2-Ethoxy-5(5-trifluoromethyl-tetrazol-1-yl)-benzyl]-([2S,3S]-2-phenylpiperidine-3-yl)amine dihydrochloride]
- inhibition of radiation-induced emesis: inhibited radiation-induced emesis
